Test [1] concerns the target Protein kinase C (PKC) (Rattus norvegicus) (UniProt P05696+P68403+P09216+P63319+P09215+Q64617+Q9WTQ0+P09217). The test can be described thus: Inhibition of partially purified rat brain protein kinase C.
Test [2] deals with Receptor tyrosine-protein kinase erbB-2 (Homo sapiens, UniProt P04626). The test can be described thus: Inhibition of neu (erb-B2) HER2 kinase.
Test [3] addresses cAMP-dependent protein kinase (PKA) (Homo sapiens, UniProt P22694+P17612+P22612). The test is described as follows: Inhibition of cAMP-dependent protein kinase (PKA). The format is protein assay.
A short description of test [4]: Displacement of ATP from myosin light chain kinase.

Each structure is given as a SMILES string. Bounds are passed on as bounds.

Receptor tyrosine-protein kinase erbB-2, sequence (P04626 whole entry): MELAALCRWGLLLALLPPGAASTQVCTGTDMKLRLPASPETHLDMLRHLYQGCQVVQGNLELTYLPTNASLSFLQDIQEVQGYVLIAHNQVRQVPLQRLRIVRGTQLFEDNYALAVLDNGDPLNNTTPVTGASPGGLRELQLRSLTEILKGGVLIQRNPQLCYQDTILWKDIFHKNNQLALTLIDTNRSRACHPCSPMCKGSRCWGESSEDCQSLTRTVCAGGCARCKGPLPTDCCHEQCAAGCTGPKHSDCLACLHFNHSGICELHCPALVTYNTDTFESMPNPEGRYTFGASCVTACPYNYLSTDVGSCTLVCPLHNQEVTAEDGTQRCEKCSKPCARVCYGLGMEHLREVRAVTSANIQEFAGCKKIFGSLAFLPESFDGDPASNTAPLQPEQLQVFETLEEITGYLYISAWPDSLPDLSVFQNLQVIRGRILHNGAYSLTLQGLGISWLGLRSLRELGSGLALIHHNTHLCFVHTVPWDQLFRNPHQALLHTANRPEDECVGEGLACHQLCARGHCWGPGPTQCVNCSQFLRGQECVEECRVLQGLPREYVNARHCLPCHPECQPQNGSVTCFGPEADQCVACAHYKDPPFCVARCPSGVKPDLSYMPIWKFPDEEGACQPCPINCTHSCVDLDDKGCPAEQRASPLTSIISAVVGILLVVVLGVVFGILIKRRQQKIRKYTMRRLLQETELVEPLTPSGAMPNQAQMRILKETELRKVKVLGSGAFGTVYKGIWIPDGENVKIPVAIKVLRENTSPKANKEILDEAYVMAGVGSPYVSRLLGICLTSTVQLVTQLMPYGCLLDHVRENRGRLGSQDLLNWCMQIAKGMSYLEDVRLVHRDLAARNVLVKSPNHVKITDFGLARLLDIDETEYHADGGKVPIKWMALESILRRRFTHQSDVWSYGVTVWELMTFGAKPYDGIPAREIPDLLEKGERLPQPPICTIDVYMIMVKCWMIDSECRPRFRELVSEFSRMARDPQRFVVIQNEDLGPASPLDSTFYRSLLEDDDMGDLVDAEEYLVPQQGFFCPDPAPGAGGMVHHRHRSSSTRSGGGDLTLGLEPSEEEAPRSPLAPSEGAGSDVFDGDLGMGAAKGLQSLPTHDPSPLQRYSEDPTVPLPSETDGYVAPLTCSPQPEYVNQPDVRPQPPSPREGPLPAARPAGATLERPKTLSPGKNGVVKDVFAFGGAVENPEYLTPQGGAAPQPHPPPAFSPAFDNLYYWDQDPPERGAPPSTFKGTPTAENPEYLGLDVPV

In test [1], `C=C1C[C@@H]2O[C@H]1n1c3ccccc3c3c4c(c5c6ccccc6n2c5c31)C(=O)NC4=O` registered an Inhibition of 5 nM.
On the same count and under the same terms, the same measure for `NC1=NC(=O)c2c1c1c3ccccc3n3c1c1c2c2ccccc2n1[C@@H]1CC[C@H]3O1`: 13 nM; for `O=C1NCc2c1c1c3ccccc3n3c1c1c2c2ccccc2n1[C@H]1CC[C@@H]3O1`: 18 nM; for `O=C1NC(=O)c2c1c1c3ccccc3n3c1c1c2c2ccccc2n1[C@@H]1O[C@H]3C[C@H]1C(=O)O`: 20 nM.
On the same count and under the same terms, with `O=C1NC(=S)c2c1c1c3ccccc3n3c1c1c2c2ccccc2n1[C@H]1CC[C@@H]3O1` the figure was 58 nM; with `CNC(=O)[C@@H]1C[C@@H]2O[C@H]1n1c3ccccc3c3c4c(c5c6ccccc6n2c5c31)C(=O)NC4=O`, 0.5 nM; with `O=C1NC(=O)c2c1c1c3ccccc3n3c1c1c2c2ccccc2n1[C@@H]1O[C@H]3C[C@@]1(O)C(=O)O`, 6 nM.
Same read-out and setting: the same measure for `O=C1NC(=O)c2c1c1c3ccccc3n3c1c1c2c2ccccc2n1[C@H]1CC[C@@H]3O1`: 19 nM.
In test [1], `NN1C(=O)c2c(c3c4ccccc4n4c3c3c2c2ccccc2n3[C@@H]2CC[C@H]4O2)C1=O` gave an Inhibition of over 5000 nM.
Take `O=C1NC(O)c2c1c1c3ccccc3n3c1c1c2c2ccccc2n1[C@H]1CC[C@@H]3O1` (stereo partly drawn): the Inhibition in test [1] turned out to be 50 nM.
Still for that read-out and setting: with `CN1C(=O)c2c(c3c4ccccc4n4c3c3c2c2ccccc2n3[C@@H]2CC[C@H]4O2)C1=O` the figure was over 5000 nM.
In test [1], `S=C1NC(=S)c2c1c1c3ccccc3n3c1c1c2c2ccccc2n1[C@H]1CC[C@@H]3O1` displayed an Inhibition of 42 nM.
On the same count and under the same terms, the same measure for `CN(C)C[C@@H]1C[C@@H]2O[C@H]1n1c3ccccc3c3c4c(c5c6ccccc6n2c5c31)C(=O)NC4=O`: 4 nM; for `O=C1NC(=O)c2c1c1c3ccccc3n3c1c1c2c2ccccc2n1[C@@H]1O[C@H]3C[C@H]1CO`: 2.4 nM.
In general, IC50 refers to the midpoint of a concentration-inhibition curve. A high value points to a need for much substance. The Ki is a measure of affinity in units of concentration, obtained from inhibition or displacement. Low readings indicate a stronger hold on the target, high ones a looser hold on the target. In the case of `O=C1NC(=O)c2c1c1c3ccccc3n3c1c1c2c2ccccc2n1[C@@H]1O[C@H]3C[C@@H]1CO`, the IC50 in test [2] turned out to be 250 nM; in test [3], 18.5 nM. In test [1], this compound showed an Inhibition of 1.7 nM. Moreover, in test [4], the affinity corresponds to a Ki of 0.7 nM.

Source of the values: ChEMBL document CHEMBL1126522, “Indolocarbazoles. 1. Total synthesis and protein kinase inhibiting characteristics of compounds related to K-252c” (Bioorg Med Chem Lett, 1993).
